The source of these data is patent US20130011870A1, “Method For Assaying Diseases Characterized By Dyslipidemia” (priority 2010, published 2013).

Structures are written as SMILES.

For the assay, the system named is serine palmitoyltransferase (SPT) in SPTLC3 overexpressing HEK293 cells. Nature of the assay: In vitro SPT activity with various acyl-CoA substrates (Example 1, FIG. 3). The format is biochemical. The conditions noted are these: acyl-CoA 50 μM; activity with palmitoyl-CoA defined as 100%. Here is the method:
FIG. 3 In vitro SPT activity with various acyl-CoA substrates (C12-CoA, C14-CoA, C16-CoA and C18:1-CoA) in control, SPTLC1, SPTLC2 and SPTLC3 overexpressing HEK293 cells. […] (For comparison the activity with palmitoyl-CoA is defined as 100%.)
All acyl-CoAs were used at the same concentration (50 μM).
As to `CCCCCCCCCCCC(=O)SCCNC(=O)CCNC(=O)[C@H](O)C(C)(C)COP(=O)(O)OP(=O)(O)OC[C@H]1O[C@@H](n2cnc3c(N)ncnc32)[C@H](O)[C@@H]1OP(=O)(O)O` [lauryl-CoA], the “SPT activity with the acyl-CoA substrate in SPTLC3 overexpressing cells compared with control, SPTLC1 and SPTLC2 cells” value was “significantly higher activity”.

Regarding `CCCCCCCC/C=C\CCCCCCCC(=O)SCCNC(=O)CCNC(=O)[C@H](O)C(C)(C)COP(=O)(O)OP(=O)(O)OC[C@H]1O[C@@H](n2cnc3c(N)ncnc32)[C@H](O)[C@@H]1OP(=O)(O)O` [oleoyl-CoA], the “SPT activity with the acyl-CoA substrate in SPTLC3 overexpressing cells compared with control, SPTLC1 and SPTLC2 cells” value is reported as “comparable for all cell lines”.

With `CCCCCCCCCCCCCCCCCC(=O)SCCNC(=O)CCNC(=O)[C@H](O)C(C)(C)COP(=O)(O)OP(=O)(O)OC[C@H]1O[C@@H](n2cnc3c(N)ncnc32)[C@H](O)[C@@H]1OP(=O)(O)O` [stearoyl-CoA], the “SPT activity with the acyl-CoA substrate in SPTLC3 overexpressing cells compared with control, SPTLC1 and SPTLC2 cells” value is given as “comparable for all cell lines”.
